Activity calls are given as the source filed them.
Columns and labels:
[1] = inhibitors of clade B AD8 Env fusion, dose response, cell-based, cherry-pick (AID 652062); type: functional;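 note: luciferase signal from cell-cell fusion driven by HIV-1 clade B AD8 Env; potency is for inhibitors of fusion seen as a drop in luminescence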
[2] = inhibitors of HIV Env-driven cell fusion, dose response, cherry-pick (AID 652057); type: functional, cell-based
[3] = ZM109 Env clade C HIV-1 fusion inhibitors, dose response, HeLa effector, CEM target cells, luciferase, cherry-pick (AID 652058); type: functional, cell-based
[4] = target: T1, Polyadenylate-binding protein 1 (Homo sapiens, UniProt P11940); assay: PABP1 MLLE–PAM2 binding inhibitor potency, dose response, biochemical, fluorescence polarization, FITC-PAM2 peptide (AID 602259); type: functional; details: read-out: IC50_Mean
T1 sequence (P11940 whole entry): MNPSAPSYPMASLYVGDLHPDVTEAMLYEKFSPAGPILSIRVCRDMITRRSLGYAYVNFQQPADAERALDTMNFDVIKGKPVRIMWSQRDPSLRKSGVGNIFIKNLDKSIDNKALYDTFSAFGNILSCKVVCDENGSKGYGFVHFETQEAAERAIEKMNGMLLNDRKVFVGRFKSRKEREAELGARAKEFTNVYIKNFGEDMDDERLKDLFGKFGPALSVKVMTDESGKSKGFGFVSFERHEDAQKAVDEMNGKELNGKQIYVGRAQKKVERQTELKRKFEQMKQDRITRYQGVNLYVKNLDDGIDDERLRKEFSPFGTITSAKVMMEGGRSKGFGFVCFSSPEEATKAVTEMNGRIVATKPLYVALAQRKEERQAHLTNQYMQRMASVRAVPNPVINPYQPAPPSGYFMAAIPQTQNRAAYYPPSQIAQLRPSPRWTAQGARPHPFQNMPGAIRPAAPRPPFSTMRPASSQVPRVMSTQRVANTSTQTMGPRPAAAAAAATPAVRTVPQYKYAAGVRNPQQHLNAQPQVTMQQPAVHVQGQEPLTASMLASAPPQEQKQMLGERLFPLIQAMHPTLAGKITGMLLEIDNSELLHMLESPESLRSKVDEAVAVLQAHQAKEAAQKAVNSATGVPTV

[5] = target: T1, Polyadenylate-binding protein 1; assay: PABP1 MLLE–PAM2 interaction inhibitors, dose response, miRNA deadenylation inhibitor project, biochemical, fluorescence polarization, Cy5-PAM2 peptide, secondary (AID 602260); type: functional; details: read-out: IC50_Mean
[6] = target: T2, Fatty acid synthase (Homo sapiens, UniProt P49327); assay: FAS thioesterase domain inhibitors, dose response, biochemical, kinetic fluorescence intensity (AID 624326); type: functional;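 note: rate of fluorescence rise from hydrolysis of a fluorogenic O-methyl fluorescein ester substrate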
T2 sequence (P49327 whole entry, the tested form may be a part): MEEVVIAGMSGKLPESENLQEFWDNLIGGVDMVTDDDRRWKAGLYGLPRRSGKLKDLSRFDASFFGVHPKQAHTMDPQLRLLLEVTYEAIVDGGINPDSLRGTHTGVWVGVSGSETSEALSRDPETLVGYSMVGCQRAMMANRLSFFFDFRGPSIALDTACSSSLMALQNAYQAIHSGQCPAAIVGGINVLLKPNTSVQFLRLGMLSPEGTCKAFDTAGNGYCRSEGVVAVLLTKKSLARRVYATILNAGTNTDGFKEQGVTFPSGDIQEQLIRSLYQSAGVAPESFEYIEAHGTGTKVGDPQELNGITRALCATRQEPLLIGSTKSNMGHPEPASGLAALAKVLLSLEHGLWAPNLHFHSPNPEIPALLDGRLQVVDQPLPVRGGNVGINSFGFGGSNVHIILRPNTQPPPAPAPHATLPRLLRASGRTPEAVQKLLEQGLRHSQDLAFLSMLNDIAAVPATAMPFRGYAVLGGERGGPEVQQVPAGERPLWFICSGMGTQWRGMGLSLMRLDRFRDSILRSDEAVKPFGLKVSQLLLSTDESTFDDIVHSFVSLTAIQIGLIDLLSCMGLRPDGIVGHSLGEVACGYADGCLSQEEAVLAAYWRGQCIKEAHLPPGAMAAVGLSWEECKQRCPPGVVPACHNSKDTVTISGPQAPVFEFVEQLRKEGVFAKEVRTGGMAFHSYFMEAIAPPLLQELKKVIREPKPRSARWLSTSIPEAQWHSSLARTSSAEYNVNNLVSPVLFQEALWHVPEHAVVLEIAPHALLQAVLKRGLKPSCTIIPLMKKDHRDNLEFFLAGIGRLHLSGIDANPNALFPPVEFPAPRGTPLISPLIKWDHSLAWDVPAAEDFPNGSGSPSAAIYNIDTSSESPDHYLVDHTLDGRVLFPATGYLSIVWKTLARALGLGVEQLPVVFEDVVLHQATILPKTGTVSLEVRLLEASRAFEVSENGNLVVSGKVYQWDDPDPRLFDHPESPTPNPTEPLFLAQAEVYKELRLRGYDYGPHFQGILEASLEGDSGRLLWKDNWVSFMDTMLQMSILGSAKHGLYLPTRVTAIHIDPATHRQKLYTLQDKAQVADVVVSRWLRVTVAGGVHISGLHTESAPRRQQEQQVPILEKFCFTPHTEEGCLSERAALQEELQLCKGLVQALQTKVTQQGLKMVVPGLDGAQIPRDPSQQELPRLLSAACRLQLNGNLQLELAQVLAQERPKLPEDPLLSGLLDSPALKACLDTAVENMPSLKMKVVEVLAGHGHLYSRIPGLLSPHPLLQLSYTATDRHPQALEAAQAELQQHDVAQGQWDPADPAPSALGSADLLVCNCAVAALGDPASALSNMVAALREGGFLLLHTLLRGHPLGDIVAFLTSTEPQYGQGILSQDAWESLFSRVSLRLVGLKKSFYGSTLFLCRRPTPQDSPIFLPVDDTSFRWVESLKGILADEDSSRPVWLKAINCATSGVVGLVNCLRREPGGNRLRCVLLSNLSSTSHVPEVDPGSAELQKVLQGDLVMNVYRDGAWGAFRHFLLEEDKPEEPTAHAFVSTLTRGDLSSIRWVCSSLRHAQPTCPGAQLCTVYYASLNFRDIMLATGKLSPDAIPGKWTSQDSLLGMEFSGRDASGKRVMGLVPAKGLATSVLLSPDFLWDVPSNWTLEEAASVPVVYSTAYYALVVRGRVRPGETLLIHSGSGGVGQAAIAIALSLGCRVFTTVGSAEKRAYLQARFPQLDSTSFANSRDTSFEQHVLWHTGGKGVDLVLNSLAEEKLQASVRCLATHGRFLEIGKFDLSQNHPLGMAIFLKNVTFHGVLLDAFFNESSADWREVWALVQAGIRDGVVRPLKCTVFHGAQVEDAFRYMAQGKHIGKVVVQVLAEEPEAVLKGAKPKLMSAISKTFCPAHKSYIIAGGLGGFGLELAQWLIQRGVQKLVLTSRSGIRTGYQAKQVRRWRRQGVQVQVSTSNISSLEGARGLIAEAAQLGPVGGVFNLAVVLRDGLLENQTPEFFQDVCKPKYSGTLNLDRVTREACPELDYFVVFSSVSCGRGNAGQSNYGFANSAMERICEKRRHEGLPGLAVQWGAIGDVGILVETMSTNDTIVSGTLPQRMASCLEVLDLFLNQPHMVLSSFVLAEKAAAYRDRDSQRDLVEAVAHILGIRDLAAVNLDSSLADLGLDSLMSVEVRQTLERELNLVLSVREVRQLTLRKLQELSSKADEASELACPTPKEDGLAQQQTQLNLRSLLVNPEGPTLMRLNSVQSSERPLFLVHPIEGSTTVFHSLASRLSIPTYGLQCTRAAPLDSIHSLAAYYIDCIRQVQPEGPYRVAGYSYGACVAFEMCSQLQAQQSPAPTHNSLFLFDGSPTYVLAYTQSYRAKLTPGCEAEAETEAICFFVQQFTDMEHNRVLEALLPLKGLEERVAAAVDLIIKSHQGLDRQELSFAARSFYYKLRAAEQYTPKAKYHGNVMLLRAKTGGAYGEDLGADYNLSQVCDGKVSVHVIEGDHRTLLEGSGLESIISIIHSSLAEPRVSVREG

[7] = target: T2, Fatty acid synthase; assay: FAS thioesterase domain inhibitors, dose response, biochemical, endpoint fluorescence intensity, uHTS hits (AID 624327); type: functional;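 note: fluorescence from hydrolysis of an O-methyl fluorescein acyl ester substrate by the enzyme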
[8] = target: Genome polyprotein (dengue virus type 2, UniProt P29990); assay: Dengue-2 NS5 methyltransferase inhibitors, primary screen, biochemical, confirmation dose response (AID 588689); type: functional
Sequence of Genome polyprotein (P29990 2492-3391 limits assumed): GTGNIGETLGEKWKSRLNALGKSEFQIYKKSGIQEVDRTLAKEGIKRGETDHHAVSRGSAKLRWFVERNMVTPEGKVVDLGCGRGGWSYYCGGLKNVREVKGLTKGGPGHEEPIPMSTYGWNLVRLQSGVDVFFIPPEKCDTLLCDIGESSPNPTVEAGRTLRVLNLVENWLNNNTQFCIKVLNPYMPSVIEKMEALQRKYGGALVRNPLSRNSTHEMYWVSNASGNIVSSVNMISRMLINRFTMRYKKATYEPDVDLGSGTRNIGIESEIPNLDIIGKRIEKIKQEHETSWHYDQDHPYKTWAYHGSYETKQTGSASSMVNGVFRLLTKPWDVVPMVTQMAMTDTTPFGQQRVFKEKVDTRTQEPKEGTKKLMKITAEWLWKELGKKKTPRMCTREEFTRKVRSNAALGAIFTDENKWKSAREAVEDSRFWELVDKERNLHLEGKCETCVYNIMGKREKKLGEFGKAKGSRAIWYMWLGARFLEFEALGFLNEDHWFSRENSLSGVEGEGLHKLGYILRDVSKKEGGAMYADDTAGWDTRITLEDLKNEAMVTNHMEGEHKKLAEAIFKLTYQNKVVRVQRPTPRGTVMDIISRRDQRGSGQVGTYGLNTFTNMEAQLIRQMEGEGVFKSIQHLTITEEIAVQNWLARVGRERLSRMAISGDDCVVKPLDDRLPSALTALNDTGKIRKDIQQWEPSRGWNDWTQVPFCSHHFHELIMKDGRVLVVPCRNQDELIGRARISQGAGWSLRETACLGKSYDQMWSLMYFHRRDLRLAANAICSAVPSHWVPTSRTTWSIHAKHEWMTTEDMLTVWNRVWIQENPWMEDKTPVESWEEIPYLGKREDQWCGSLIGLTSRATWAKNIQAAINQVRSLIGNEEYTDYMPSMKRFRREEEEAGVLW

[9] = target: Large T antigen (Simian virus 40, UniProt P03070); type: functional, Betapolyomavirus macacae;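 note: Confirmatory-stage PubChem screen for compounds that inhibit SV40 T antigen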
[10] = target: Heat shock protein HSP 90-alpha (Homo sapiens, UniProt P07900); type: functional, organism-based
[11] = target: T3, High affinity choline transporter 1 (Homo sapiens, UniProt Q9GZV3); assay: CHT inhibitors, dose response, cell-based, 5-point CRC, membrane potential dye (AID 504840); type: functional
T3 sequence (Q9GZV3 whole entry): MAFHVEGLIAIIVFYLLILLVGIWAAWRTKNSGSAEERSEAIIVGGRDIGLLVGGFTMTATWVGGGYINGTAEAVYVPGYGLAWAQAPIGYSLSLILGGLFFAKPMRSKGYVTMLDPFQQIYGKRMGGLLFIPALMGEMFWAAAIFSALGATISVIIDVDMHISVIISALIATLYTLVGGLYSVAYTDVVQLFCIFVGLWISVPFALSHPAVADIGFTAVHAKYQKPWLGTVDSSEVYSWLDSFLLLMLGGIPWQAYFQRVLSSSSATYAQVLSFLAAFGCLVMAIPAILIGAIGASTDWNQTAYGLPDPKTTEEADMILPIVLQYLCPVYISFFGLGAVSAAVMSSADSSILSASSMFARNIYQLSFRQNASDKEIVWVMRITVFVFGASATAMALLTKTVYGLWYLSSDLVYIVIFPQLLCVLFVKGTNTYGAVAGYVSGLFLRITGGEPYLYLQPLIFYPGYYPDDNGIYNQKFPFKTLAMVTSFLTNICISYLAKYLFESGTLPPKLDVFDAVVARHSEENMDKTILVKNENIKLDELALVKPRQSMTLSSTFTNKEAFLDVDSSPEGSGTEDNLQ

[12] = target: Alkaline phosphatase, placental type (Homo sapiens, UniProt P05187); assay: PLAP enzyme inhibitors, confirmation, biochemical, luminescence (AID 1512); type: functional
Sequence of Alkaline phosphatase, placental type (P05187 whole entry): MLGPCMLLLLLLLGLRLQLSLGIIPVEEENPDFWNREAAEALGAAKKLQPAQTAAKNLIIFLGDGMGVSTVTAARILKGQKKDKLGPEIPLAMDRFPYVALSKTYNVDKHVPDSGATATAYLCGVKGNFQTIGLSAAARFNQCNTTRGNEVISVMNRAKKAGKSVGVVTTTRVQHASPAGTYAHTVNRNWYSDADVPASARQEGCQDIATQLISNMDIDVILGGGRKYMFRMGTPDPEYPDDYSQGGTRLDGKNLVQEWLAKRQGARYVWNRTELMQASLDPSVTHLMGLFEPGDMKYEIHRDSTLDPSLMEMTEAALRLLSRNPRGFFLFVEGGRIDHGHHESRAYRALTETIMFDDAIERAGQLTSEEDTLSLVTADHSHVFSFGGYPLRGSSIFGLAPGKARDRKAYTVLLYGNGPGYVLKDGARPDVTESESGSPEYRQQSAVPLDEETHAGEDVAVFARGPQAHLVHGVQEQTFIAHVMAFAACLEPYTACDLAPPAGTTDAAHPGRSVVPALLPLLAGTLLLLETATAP

[13] = target: T4, Zinc finger protein mex-5 (Caenorhabditis elegans, UniProt Q9XUB2); assay: MEX-5/TCR-2 RNA interaction inhibitors, dose response, biochemical, C. elegans, fluorescence polarization (AID 1960)
T4 sequence (Q9XUB2 whole entry): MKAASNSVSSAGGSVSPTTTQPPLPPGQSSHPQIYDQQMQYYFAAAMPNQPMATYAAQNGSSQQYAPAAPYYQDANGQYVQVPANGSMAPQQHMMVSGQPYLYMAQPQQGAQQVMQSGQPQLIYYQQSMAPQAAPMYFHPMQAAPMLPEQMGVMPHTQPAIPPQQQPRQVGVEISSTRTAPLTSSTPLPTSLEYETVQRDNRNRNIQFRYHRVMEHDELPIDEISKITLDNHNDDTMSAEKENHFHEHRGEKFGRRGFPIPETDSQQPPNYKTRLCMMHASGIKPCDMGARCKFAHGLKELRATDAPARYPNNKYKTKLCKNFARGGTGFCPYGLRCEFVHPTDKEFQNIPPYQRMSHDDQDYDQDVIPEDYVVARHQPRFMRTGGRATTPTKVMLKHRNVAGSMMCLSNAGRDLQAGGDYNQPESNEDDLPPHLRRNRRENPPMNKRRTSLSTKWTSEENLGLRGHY

[14] = target: T5, RNA-binding protein pos-1 (Caenorhabditis elegans, UniProt G5EF15); assay: inhibitors of POS-1/mex-3 RNA binding, dose response, biochemical, fluorescence polarization (AID 1964);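 note: purified POS-1 fused to maltose binding protein made in E. coli; potency of compounds blocking POS-1 binding to fluorescent RNA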
T5 sequence (G5EF15 whole entry): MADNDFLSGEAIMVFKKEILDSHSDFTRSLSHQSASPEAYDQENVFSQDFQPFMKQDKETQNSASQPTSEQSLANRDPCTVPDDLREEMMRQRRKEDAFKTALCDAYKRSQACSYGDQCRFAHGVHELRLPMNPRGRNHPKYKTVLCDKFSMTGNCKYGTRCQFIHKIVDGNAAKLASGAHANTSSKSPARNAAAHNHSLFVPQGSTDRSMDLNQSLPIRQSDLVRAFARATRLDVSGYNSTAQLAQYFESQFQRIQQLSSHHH

[15] = Luminescence Cell-Based Dose Confirmation HTS to Identify Inhibitors of Platelet Dense Granule Release. [Related pubchem assays: 1663 (Primary HTS), 1678 (Summary of Project)]; type: functional
[16] = target: Luciferin 4-monooxygenase (Photinus pyralis, UniProt P08659); assay: firefly luciferase enzyme inhibitors, dose response, biochemical, luminescence (AID 1891)
[17] = target: T6, Protein RecA (Mycobacterium tuberculosis, UniProt P9WHJ3); assay: Fluorescence Cell-Free Homogeneous Dose Retest to Identify Inhibitors of RecA-Intein Splicing Activity. [Related pubchem assays (depositor defined):AID2097, AID2223, AID489010, AID492950]; type: functional
T6 sequence (P9WHJ3 whole entry): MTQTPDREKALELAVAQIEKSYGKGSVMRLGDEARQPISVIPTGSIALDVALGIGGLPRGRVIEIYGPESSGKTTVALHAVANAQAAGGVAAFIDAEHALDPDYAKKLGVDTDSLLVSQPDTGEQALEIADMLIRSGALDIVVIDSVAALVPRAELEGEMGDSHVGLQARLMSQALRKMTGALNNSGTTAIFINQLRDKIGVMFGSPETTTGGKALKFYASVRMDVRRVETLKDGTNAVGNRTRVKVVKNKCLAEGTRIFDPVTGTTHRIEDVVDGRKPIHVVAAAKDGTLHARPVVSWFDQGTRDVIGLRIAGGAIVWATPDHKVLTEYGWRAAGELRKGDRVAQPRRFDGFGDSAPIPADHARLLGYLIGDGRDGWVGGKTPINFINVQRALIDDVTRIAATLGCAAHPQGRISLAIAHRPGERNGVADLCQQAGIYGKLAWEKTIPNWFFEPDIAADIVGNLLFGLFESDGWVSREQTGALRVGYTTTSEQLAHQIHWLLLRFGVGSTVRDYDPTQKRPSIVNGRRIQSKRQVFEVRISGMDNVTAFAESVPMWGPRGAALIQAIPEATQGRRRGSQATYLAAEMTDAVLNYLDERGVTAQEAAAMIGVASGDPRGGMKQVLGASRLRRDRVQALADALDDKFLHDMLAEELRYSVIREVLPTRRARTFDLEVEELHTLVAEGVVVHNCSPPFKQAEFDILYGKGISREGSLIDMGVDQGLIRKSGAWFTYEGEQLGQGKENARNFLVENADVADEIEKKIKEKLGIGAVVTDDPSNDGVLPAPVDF

[18] = target: T7, Replicative DNA helicase DnaB (Mycobacterium tuberculosis, UniProt P9WMR3); assay: DnaB intein splicing inhibitors, dose response, biochemical, cell-free fluorescence (AID 449749); type: functional
T7 sequence (P9WMR3 whole entry): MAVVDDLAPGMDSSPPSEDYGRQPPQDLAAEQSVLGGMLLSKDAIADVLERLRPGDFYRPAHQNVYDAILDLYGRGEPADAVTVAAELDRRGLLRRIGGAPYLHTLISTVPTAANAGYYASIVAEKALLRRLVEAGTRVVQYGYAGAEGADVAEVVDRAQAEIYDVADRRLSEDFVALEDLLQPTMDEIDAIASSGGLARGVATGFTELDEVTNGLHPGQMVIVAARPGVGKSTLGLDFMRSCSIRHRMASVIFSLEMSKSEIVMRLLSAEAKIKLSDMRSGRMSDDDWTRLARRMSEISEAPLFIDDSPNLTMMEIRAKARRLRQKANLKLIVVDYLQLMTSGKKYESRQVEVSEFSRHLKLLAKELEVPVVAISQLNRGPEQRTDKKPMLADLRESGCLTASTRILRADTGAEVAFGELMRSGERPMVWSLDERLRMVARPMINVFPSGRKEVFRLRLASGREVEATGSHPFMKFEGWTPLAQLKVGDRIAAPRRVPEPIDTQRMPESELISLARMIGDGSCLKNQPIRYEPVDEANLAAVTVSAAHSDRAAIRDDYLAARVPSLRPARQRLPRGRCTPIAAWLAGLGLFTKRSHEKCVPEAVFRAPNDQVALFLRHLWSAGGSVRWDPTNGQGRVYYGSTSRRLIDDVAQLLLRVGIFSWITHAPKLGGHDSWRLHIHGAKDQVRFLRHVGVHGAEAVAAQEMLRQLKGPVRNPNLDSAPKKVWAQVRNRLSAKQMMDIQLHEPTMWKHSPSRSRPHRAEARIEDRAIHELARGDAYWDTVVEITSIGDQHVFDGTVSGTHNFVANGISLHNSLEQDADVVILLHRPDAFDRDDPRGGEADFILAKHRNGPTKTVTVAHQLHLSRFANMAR

[19] = Luminescence Cell-Based Dose Retest to Confirm Inhibitors of Cancer Stem Cells. [Related pubchem assays (depositor defined):AID2717, AID2721]; type: functional; details: Homo sapiens

Compound: Cc1noc(C)c1S(=O)(=O)N(C)C[C@@H]1Oc2ccc(NC(=O)Nc3cccc4ccccc34)cc2CC(=O)N([C@H](C)CO)C[C@@H]1C
- AC50 [1]: 2.17 µM (active)
- AC50 [2]: < 0.285 µM (active)
- AC50 [3]: < 0.285 µM (active)

Compound: CC(=O)n1c2ccccc2c2c1c1ccccc1n2C
- IC50 [4]: > 66 µM (inactive)
- IC50 [5]: > 66 µM (inactive)

Compound: Cc1cc(-c2ccc(/C=N/n3cnnc3)o2)c(C)c([N+](=O)[O-])c1
- IC50 [6]: 9.46 µM (active)
- IC50 [7]: 12.5 µM (active)

Compound: CCCSc1nc(O)c(C(c2ccc(OC)c(O)c2)c2c(O)nc(SCCC)n(C)c2=O)c(=O)n1C
- IC50 [8]: 42.1 µM (active)
- IC50 [9]: > 100 µM (active)

Compound: C/C(=N\NC(=O)c1nnn(-c2nonc2N)c1-c1ccc(Cl)c(Cl)c1)c1ccncc1
- IC50 [6]: 20.9 µM (inactive)
- IC50 [7]: 28 µM (inactive)

Compound: Cc1ccc(N2C(=O)CC(SCC(=O)Nc3ccc(S(N)(=O)=O)cc3)C2=O)cc1 (centres undefined)
- IC50 [4]: > 66 µM (inactive)
- IC50 [5]: > 66 µM (inactive)

Compound: Cn1nnc2c(C(N)=O)ncn2c1=O [TEMOZOLOMIDE]
- IC50 [4]: 43.4 µM (inactive)
- IC50 [5]: > 66 µM (inactive)

Compound: Cc1ccc(OCCOc2cccc(C=C3C(=O)NC(=O)NC3=O)c2)c(C)c1
- IC50 [8]: 35.5 µM (active)

Compound: CC1(C)N=C(SCC(=O)Nc2ccccc2)C(c2ccc(Cl)cc2)=N1
- IC50 [4]: > 66 µM (inactive)
- IC50 [5]: > 66 µM (inactive)

Compound: CCc1cnc(N2[C@@H](C#N)[C@H](c3ccc(C#Cc4ccccc4F)cc3)[C@@H]2CO)s1
- AC50 [1]: 24.4 µM (active)
- AC50 [2]: 39.8 µM (active)
- AC50 [3]: 5.29 µM (active)

Compound: COc1ccc2c(c1)OC[C@H]1[C@H]2N2C(=O)c3cc(C)ccc3NC(=O)[C@@]2(C)[C@H]1c1ccccc1
- AC50 [10]: 1.86 µM (active)

Compound: CCC(C)N/C=C1/C(=O)NC(=O)N(c2ccccc2)C1=O (centres undefined)
- IC50 [4]: > 66 µM (inactive)
- IC50 [5]: > 66 µM (inactive)

Compound: Cc1cccc(-n2cc(CN3CCN(Cc4nccn4C)CC3)c(-c3cccc(F)c3)n2)c1
- IC50 [11]: 13.5 µM (active)

Compound: CCN(CC)CCCNC(=O)CCC(=O)NNc1nc2ccccc2c2nc(C)nn12
- IC50 [12]: > 100 µM (inactive)
- EC50 [13]: 0.93 µM (active)
- EC50 [14]: 160 µM (active)

Compound: COc1ccc(-c2nnc3n(CCc4ccccc4)c(=O)c4ccccc4n23)c(OC)c1
- EC50 [15]: > 112 µM (not active)
- EC50 [16]: > 112 µM (not active)
- AC50 [10]: 7.83 µM (active)

Compound: C#CCOc1ccc(/C=C2/C(=O)ON=C2C)cc1OCC
- IC50 [8]: > 100 µM (active)

Compound: CCCCCCCCNC(=O)/C(C#N)=C/c1ccccc1[N+](=O)[O-]
- EC50 [17]: 3.79 µM (active)
- IC50 [6]: 5.82 µM (active)
- AC50 [18]: 1.98 µM (active)
- IC50 [7]: 8.41 µM (active)
- AC50 [10]: 4.28 µM (active)

Compound: CC(C)c1ccccc1NC(=O)COC(=O)c1cc([N+](=O)[O-])ccc1N1CCOCC1
- IC50 [6]: 2.46 µM (active)
- IC50 [7]: 2.95 µM (active)

Compound: O=C(NCCN1CCCC1)c1ccc2c(c1)N(Cc1cccc(Cl)c1)C(=O)c1ccccc1S2(=O)=O
- AC50 [19]: > 195 µM (inactive)
- IC50 [11]: 11.5 µM (active)

Compound: COC(=O)c1sc(=S)sc1C(=O)OC
- IC50 [4]: > 66 µM (inactive)
- IC50 [5]: > 66 µM (inactive)

Compound: COc1ccc([N+](=O)[O-])cc1NC(=O)CC(c1ccccc1)c1ccccc1
- IC50 [6]: 32.8 µM (inactive)
- IC50 [7]: 60.1 µM (inactive)

Compound: O=C(/C=C/c1cccc([N+](=O)[O-])c1)c1ccco1
- AC50 [10]: 4 µM (active)

Compound: COc1ccc(C(=O)COC(=O)c2cc([N+](=O)[O-])ccc2N2CCOCC2)c(OC)c1
- IC50 [6]: 1.63 µM (active)
- IC50 [7]: 1.66 µM (active)
- AC50 [10]: 10.2 µM (active)
